Data from ChEMBL document CHEMBL1132511, “Stereospecific synthesis of a GS 4104 metabolite: determination of absolute stereochemistry and influenza neuraminidase inhibitory activity” (Bioorg Med Chem Lett, 1999).

Columns and labels:
[1] = test system: Influenza B virus; experiment: In vitro inhibitory activity against influenza B neuraminidase using enzymatic assay; assay type: functional
[2] = target: Neuraminidase (Influenza A virus (A/Puerto Rico/8/1934(H1N1)), UniProt P03468); experiment: In vitro inhibitory activity against influenza A neuraminidase using enzymatic assay
Neuraminidase (Influenza A virus (A/Puerto Rico/8/1934(H1N1)), UniProt P03468), sequence (P03468 whole entry): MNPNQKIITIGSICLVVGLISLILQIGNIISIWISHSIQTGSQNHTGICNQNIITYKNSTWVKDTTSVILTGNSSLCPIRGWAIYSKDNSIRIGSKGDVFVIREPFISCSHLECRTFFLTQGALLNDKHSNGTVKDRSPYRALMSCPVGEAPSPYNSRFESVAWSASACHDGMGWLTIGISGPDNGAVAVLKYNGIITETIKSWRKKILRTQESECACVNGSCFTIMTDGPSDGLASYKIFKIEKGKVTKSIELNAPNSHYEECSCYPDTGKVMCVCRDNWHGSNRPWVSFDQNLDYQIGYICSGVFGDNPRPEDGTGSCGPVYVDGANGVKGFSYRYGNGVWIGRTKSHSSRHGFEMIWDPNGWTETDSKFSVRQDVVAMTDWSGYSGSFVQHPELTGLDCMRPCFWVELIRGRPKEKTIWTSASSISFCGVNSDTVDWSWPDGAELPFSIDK

Compound | IC50 [1] | IC50 [2]
CCC(CC)O[C@@H]1C=C(C(=O)O)C[C@H](N)[C@H]1NC(C)=O [OSELTAMIVIR CARBOXYLATE] | 4 nM | –
CC[C@H](CCO)O[C@@H]1C=C(C(=O)O)C[C@H](N)[C@H]1NC(C)=O | 400 nM | 40 nM
CC[C@H](CC(=O)O)O[C@@H]1C=C(C(=O)O)C[C@H](N)[C@H]1NC(C)=O | – | 1150 nM
CC[C@@H](CCO)O[C@@H]1C=C(C(=O)O)C[C@H](N)[C@H]1NC(C)=O | 85 nM | 30 nM
CC[C@@H](CC(=O)O)O[C@@H]1C=C(C(=O)O)C[C@H](N)[C@H]1NC(C)=O | – | 450 nM
